The values below come from PubChem BioAssay (NCI).

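In this assay, cells in 96-well plates receive the compound at five concentrations for 48 hours. Endpoints are linearly interpolated between the surrounding concentrations. Here, GI50 denotes the concentration required for 50% inhibition of growth. TGI: concentration producing complete growth inhibition.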

What all share (assay): NCI tumour cell line growth inhibition, 48 h
The subject of test [1] is NCI-H23 lung.
Test [2] relates to M14 melanoma.
Test [3] concerns HCT-15 colon.
Test [4] deals with HCC-2998 colon.
Test [5] deals with OVCAR-8 ovarian.
Test [6] deals with NCI-H460 lung.
The subject of test [7] is COLO 205 colon.
Test [8] concerns CAKI-1 renal.
The test system of test [9] is DU-145 prostate.
In test [10] the test system is MCF7 breast.

Regarding `Cc1nc2ccccc2c(=O)n1-c1ccccc1F`, the TGI in [1], in test [2], in test [3], in [4], in test [5] and in test [6] was more than 100 µM each time. Further, the TGI in [7] and in [8] was more than 100 µM each time.
In the case of `CCOC(=O)CCn1[nH]c(=O)c(Cl)c(Cl)c1=O`, the TGI in test [1], in test [2], in test [3], in [4], in test [5] and in [6] was more than 100 µM each time. The TGI in test [7] and in test [8] was more than 100 µM in each case.
Turning to `N.N.O=C([O-])P(=O)([O-])[O-].[Na+].[Pt+4]`, the GI50 in [1], in test [2], in test [3], in [4], in [5] and in [6] was more than 100 µM throughout. Also, the GI50 in test [7] and in [8] was more than 100 µM each time. Moreover, the TGI in test [1], in test [2], in test [3], in test [4], in test [5] and in [6] was more than 100 µM in each case. Besides, the TGI in test [7] and in test [8] was more than 100 µM throughout.
With `O=C(Nc1ccc(Cl)cc1Cl)C(=O)C(C(=O)c1ccncc1)C1OC(=O)c2ccccc21` (stereo not drawn), the TGI in test [1], in test [2], in [3], in test [4], in test [5] and in test [6] was more than 100 µM throughout. Moreover, the TGI in test [7] and in test [8] was more than 100 µM each time.
For the molecule `COc1ccc(CNc2nc3cc(C(F)(F)F)ccc3nc2C)cc1OC`, the TGI was more than 100 µM in test [1]; 44.6 µM in test [2]; more than 100 µM in test [3]; 58.9 µM in [4]; more than 100 µM in test [5]; more than 100 µM in test [6]. Also, the TGI in test [7] and in [8] was more than 100 µM throughout.
As for `CC(C)c1cc2c(O)c(c1)Cc1cc(C(C)C)cc(c1O)Cc1cc(C(C)C)cc(c1O)Cc1cc(C(C)C)cc(c1O)C2`, the TGI in test [1], in [3], in [5], in test [6], in test [7] and in [8] was more than 100 µM in each case.
`COC(=O)C(=O)C(C(=O)C=C(C)C)C(=O)C(=O)Nc1ccc(C)cc1C` (stereo not drawn): the TGI in test [1], in test [2], in test [3], in test [4], in test [5] and in test [6] was more than 100 µM throughout. In addition, the TGI in [7] and in test [8] was more than 100 µM in each case.
Consider `COc1cccc(N2C(=O)[C@H]3CC(C)c4c([nH]c5ccccc45)[C@H]3C2=O)c1` (stereo partly drawn), for which the TGI in test [1], in test [2], in test [3], in test [4], in [5] and in test [6] was more than 100 µM throughout. Moreover, the TGI in [7] and in test [8] was more than 100 µM each time.
For the molecule `Cc1[nH]c2ccccc2c1C1Cc2ccccc2N1C(=O)/C(Cl)=C/c1ccccc1` (stereo not drawn), the TGI in [1], in test [2], in test [3], in test [4], in test [5] and in test [6] was more than 100 µM in each case. Further, the TGI in test [7] and in test [8] was more than 100 µM in each case.
As for `N#CCC(=O)NC1C2CC3CC(C2)CC1C3` (stereo not drawn), the TGI in test [1] was determined as 32.6 µM; in test [2] it was 41.6 µM; in [3], 35.9 µM; in [4], 31.9 µM; in test [5], 33.1 µM; in [6], 32.3 µM. Also, the TGI in test [7] was determined as 34 µM; in test [8] it was 34.1 µM.
As for `COC(=O)C(=Cc1cc(OC)c(OC)c(OC)c1-c1cc2c(cc1C(C)=O)OCO2)C(=O)OC`, the TGI in test [1] was 75.9 µM; in test [3], 50.2 µM; in [4], 70.4 µM; in [5], more than 211 µM; in test [6] it was more than 211 µM; in test [7], 66.8 µM. In test [8], this molecule returned a TGI of 108 µM.
As to `COc1ccc(-c2cc(=O)c3ccccc3[nH]2)c(OC)c1`, the TGI in test [1], in test [2], in test [3], in [5], in test [6] and in test [7] was more than 100 µM throughout.
For the molecule `CN(C)C(c1ccccc1)C(O)c1ccccc1` (stereo not drawn), the TGI in test [1], in test [2], in [3], in test [4], in [6] and in test [7] was more than 100 µM each time. The same molecule showed a TGI in test [8] of more than 100 µM.
For `OC/C=C(\I)CCCOCOCc1ccccc1`, the TGI in [1], in test [2], in test [3], in test [4], in [5] and in test [6] was more than 100 µM each time. In test [7], this molecule showed a TGI of more than 100 µM.
`CCOC(=O)C(Cc1cn(S(=O)(=O)c2ccccc2)c2ccccc12)(NC(C)=O)C(=O)OCC`: the TGI in test [1], in [2], in test [3], in test [4], in test [5] and in test [6] was more than 100 µM each time. Moreover, the values for the TGI in test [7] and in [8] were 60.8 µM and more than 100 µM, respectively.
In the case of `C/C(=C1/CCC/C(=C(/C)c2ccccc2)C1=O)c1ccccc1`, the TGI in test [1], in [2], in test [3], in test [4], in test [5] and in test [6] was more than 100 µM throughout. The molecule further returned a TGI in test [7] of more than 100 µM.
As to `COc1ncc(-c2ccc3ncnc(Nc4cccc(Cl)c4)c3c2)cc1NS(=O)(=O)CCN1CCOCC1`, the GI50 was 0.297 µM in [9]; 0.768 µM in [1]; 0.755 µM in test [2]; 0.448 µM in [3]; 0.7 µM in test [5]; 0.393 µM in [6]. Besides, the GI50 in test [8] is 0.345 µM. The TGI in test [9], in [1], in test [2], in test [3], in test [5] and in [6] was more than 100 µM each time. Moreover, in [8], the TGI is more than 100 µM.
Regarding `Fc1ccc(C2SCc3nc4ccccc4n32)cc1Cl` (stereo not drawn), the TGI in [1] was 58.1 µM; in [4], 37.2 µM; in test [5] it was 48.1 µM; in test [6], more than 100 µM; in test [7], 28.6 µM; in test [8], 38.4 µM.
Regarding `Cc1ccc(-c2cc(=O)c3cc(C)c(C)c(C(=O)O)c3o2)cc1C`, the TGI in test [1], in test [2], in [3], in test [4], in test [5] and in [6] was more than 100 µM throughout. Further, the TGI was more than 100 µM in [7] and 89.5 µM in test [8].
In the case of `N#CCc1ccc(C(C#N)/C(CCCC(=O)Nc2cccc([N+](=O)[O-])c2)=N/NC(N)=S)cc1` (stereo not drawn), the TGI in test [1], in [2], in test [3], in [4], in test [6] and in test [7] was more than 100 µM each time. In addition, the TGI in [8] was more than 100 µM.
`CC(=O)N1C/C(=C\c2ccc(N(C)C)cc2)C(=O)/C(=C/c2ccc(N(C)C)cc2)C1`: the TGI in test [1], in [2], in test [3], in test [4], in test [5] and in test [8] was more than 100 µM in each case.
On to `c1cc[c]([Pb]([c]2ccccc2)[c]2ccccc2)cc1`, for which the GI50 in test [1] was 3.34 µM; in test [2] it was 14.2 µM; in test [3], 12.4 µM; in test [4], 14.8 µM; in test [5] it was 12.4 µM; in [6] it was 20.2 µM. Besides, the GI50 was 14.8 µM in [7] and 30 µM in test [8]. Also, the TGI in [1] was 15.8 µM; in test [2], 47.4 µM; in test [3], 28.4 µM; in test [4], 37.3 µM; in test [5], 72.5 µM; in test [6], more than 100 µM. In addition, the TGI in test [7] is 30.3 µM; in test [8] it was more than 100 µM.
`COc1ccc(-n2cc(-c3cc(OC)c(OC)c(OC)c3)[nH]c2=O)cc1Cl`: the GI50 in test [1], in test [10], in [2], in test [3], in test [4] and in [6] was more than 100 µM each time. For the same molecule, the GI50 in test [7] and in test [8] was more than 100 µM throughout. Moreover, the TGI in [1], in test [10], in test [2], in [3], in [4] and in [6] was more than 100 µM in each case. The TGI in test [7] and in [8] was more than 100 µM in each case.
Regarding `CCc1ccc(Nc2ccc([N+](=O)[O-])cc2[N+](=O)[O-])cc1`, the TGI in test [1], in test [2], in [3], in test [4], in test [5] and in test [6] was more than 100 µM throughout. The TGI in [8] was more than 100 µM.
As to `COc1ccc(/C(Cl)=C(\C=O)c2ccc([N+](=O)[O-])cc2)cc1`, the TGI in test [1] was 50.6 µM; in test [2] it was more than 74.6 µM; in test [3] it was more than 70.3 µM; in [4] it was 62.6 µM; in test [5], 38.3 µM; in test [6], more than 100 µM. Also, the TGI in test [7] came out at 40.4 µM; in test [8] it was 33.8 µM.
As to `O=C1NC2OCC(O)C(O)C2O1` (stereo not drawn), the TGI in [1], in test [2], in [3], in test [4], in [5] and in [6] was more than 100 µM throughout. The TGI in test [7] and in test [8] was more than 100 µM throughout.
Consider `FC(F)(F)c1nc(-c2ccccc2)oc1Sc1nnc(Sc2oc(-c3ccccc3)nc2C(F)(F)F)s1`, for which the TGI in test [1] is 67.3 µM; in test [2], 28 µM; in test [3], more than 59 µM; in test [4], more than 100 µM; in [5] it was 59.8 µM; in [6], more than 100 µM. The figures for the TGI in test [7] and in test [8] were more than 69.8 µM and more than 78.7 µM, respectively.
On to `CC1=N/C(=C\c2cccc([N+](=O)[O-])c2)C(=O)O1`, for which the TGI in test [1], in [2], in test [3], in [4], in [5] and in [6] was more than 100 µM each time. Further, the TGI in [7] was more than 100 µM.
For the molecule `CC(C)c1ccc(C(c2ccc(OCC(=O)O)cc2)c2ccc(C(C)C)cc(=O)c2O)c(O)c(=O)c1`, the TGI in test [1] was determined as 20.4 µM; in test [2] it was 11 µM; in [3], 22.9 µM; in test [4], 20.3 µM; in test [5], 58.3 µM; in test [6] it was 8.34 µM. For the same molecule, the results for the TGI in test [7] and in [8] were more than 100 µM and 18.1 µM, respectively.
For `COc1cccc(/C=C2\C(=O)N(C(=O)c3ccc(NC(C)=O)cc3)N=C2C)c1`, the TGI in [1], in [2], in test [3], in [4], in test [5] and in test [6] was more than 100 µM throughout. The TGI in test [7] and in test [8] was more than 100 µM throughout.
With `COC(=O)c1cc(C)c(C)c2c1NC(=O)CNC2=O`, the TGI in test [1], in [2], in test [3], in [4], in [5] and in [6] was more than 100 µM each time. The TGI in test [7] and in [8] was more than 100 µM in each case.
